Read-outs that look alike come from different tables or passages of the source.
Columns and labels:
[1] = target: c-Kit (Homo sapiens (Human), UniProt P10721); experiment: Inhibition of c-Kit kinase activity (HTRF KinEASE-TK); assay type: biochemical
Outline: (§1)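 Phosphorylation of biotinylated TK peptide read by HTRF (665/620 nm ratio) after 120 min at rt, following 1 h enzyme–compound preincubation. ATP (2× mix): 20 μM CSF1R, 16 μM c-Kit, 40 μM PDGFRβ, 1 μM PDGFRα; MgCl2 10 mM except c-Kit 5 mM. 22-point 1:2 titration; four-parameter IC50.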

[2] = test system: Phospho-KIT (Y703) in M07e cells; experiment: Phospho-KIT (Y703) cellular assay in M07e cells; assay type: cell-based; conditions: read-out: M07e Cell IC50
Outline: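 Serum-starved M07e cells preincubated 50 min at 37° C with 11-point half-log compound titration, then stimulated 10 min with SCF at 90.9 ng/mL final. Fixed, permeabilized cells stained for phospho-KIT Y703 and read by flow cytometry (live-gated geometric mean); IC50 by 4-parameter fit normalized to DMSO and positive control.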

[3] = target: PDGFRβ (Homo sapiens (Human), UniProt P09619); experiment: Inhibition of PDGFRβ kinase activity (HTRF KinEASE-TK); conditions: biochemical
Outline: as §1

[4] = target: PDGFRα (Homo sapiens (Human), UniProt P16234); experiment: Inhibition of PDGFRα kinase activity (HTRF KinEASE-TK); conditions: biochemical
Outline: as §1

[5] = target: FLT3 (Homo sapiens (Human), UniProt P36888); experiment: Inhibition of FLT3 kinase activity (HTRF KinEASE-TK); assay type: biochemical
Procedure: Inhibition of c-Kit, PDGFRα, PDGFRβ, CSFIR and FLT3 Kinase Activity
Compounds were evaluated to determine the potency with which they inhibit the kinase activity of the following panel of tyrosine kinases: c-Kit (SignalChem, Product #: K06-11BG), PDGFRα (SignalChem, Product #: P12-18G), PDGFRβ (SignalChem, Product #: P13-11G), CSFIR (SignalChem, Product #: C74-11G) and FLT3 (Invitrogen, Product #: PR4666C). Activity was determined as a function of phosphorylated biotinylated TK peptide generated by the transfer of phosphate from ATP as measured by the use of the HTRF KinEASE-TK assay kit (Cisbio, Product #: 62TKOPEJ). Levels of phosphorylated biotinylated TK peptide (Part 61TKOBLC of KinEASE assay kit) are quantified by its capture by phosphor-TK-Antibody-Cryptate (Part of KinEASE assay kit) and XL665-labeled Streptavidin (Part 610SAXLG of KinEASE assay kit) followed by measurement of Time-Resolved Fluorescence Resonance Energy Transfer (TR-FRET) signal. On the day of the assay, compounds were solubilized in DMSO and dispensed into a 384-well white Opti-plate (PerkinElmer, catalog #6007290) to generate a 22 point 1:2 titration. Enzyme solution was prepared for each of the tyrosine kinases in 50 mM HEPES, pH 7.4, 5 mM MgCl2 for c-Kit or 10 mM MgCl2 for FLT3, CSFIR, PDGFRa and PDGFRβ, 2 mM MnCl2, 0.01% Brij-35 and 0.01% BSA. Working enzyme concentrations were prepared for c-Kit at 2 nM (2×), PDGFRa and PDGFRß at 10 nM (2×), CSFIR at 2 nM (2×) and FLT3 at 0.4 nM (2×). Five microliters of enzyme dilution of each tyrosine kinase were added to their respective 384-well white Opti-plate pre-dispensed with compound and allowed to incubate for 1 h at rt. Utilizing the same enzyme buffer recipe, 2x substrate mixes were prepared for each enzyme as follows: For c-Kit, 1.6 μM (2×) TK substrate and 16 μM (2×) ATP (Promega, catalog #V915). For PDGFRα, 3.2 μM TK substrate and 1 μM ATP. For PDGFRβ, 3.2 μM TK substrate and 40 μM ATP. For CSFIR, […] TK substrate and 20 μM ATP. For FLT3, 3.2 μM TK substrate and 100 μM ATP. Reactions were initiated by addition of 5 μL of the respective 2x substrate mix to each well of the plates containing the respective tyrosine kinase enzymes and were allowed to proceed for 120 minutes at rt, except for FLT3, the reaction time is 45 min. Following the reaction, 10 μL of detection mix consisting of 0.2 μM (2×) of Streptavidin-XL665 and 2 μM (2×) of TK-Antibody-Cryptate prepared in detection buffer (Part 62SDBRDF of KinEASE assay kit) was added and then allowed to incubate for 60 min. The TR-FRET signal was quantified by measuring the ratio of emission at 665 nm to 620 nm after excitation at 320 nm by reading on a PerkinElmer Envision multimode reader. Compound potencies (IC50 values) were determined using a standard 4-parameter non-linear regression fit.

[6] = target: CSF1R (Homo sapiens (Human), UniProt P07333); experiment: Inhibition of CSF1R kinase activity (HTRF KinEASE-TK); conditions: biochemical
Outline: as §1

[7] = M-07e, Phospho-KIT (Y703), M07e cells

Chain of c-Kit (P10721 26-976): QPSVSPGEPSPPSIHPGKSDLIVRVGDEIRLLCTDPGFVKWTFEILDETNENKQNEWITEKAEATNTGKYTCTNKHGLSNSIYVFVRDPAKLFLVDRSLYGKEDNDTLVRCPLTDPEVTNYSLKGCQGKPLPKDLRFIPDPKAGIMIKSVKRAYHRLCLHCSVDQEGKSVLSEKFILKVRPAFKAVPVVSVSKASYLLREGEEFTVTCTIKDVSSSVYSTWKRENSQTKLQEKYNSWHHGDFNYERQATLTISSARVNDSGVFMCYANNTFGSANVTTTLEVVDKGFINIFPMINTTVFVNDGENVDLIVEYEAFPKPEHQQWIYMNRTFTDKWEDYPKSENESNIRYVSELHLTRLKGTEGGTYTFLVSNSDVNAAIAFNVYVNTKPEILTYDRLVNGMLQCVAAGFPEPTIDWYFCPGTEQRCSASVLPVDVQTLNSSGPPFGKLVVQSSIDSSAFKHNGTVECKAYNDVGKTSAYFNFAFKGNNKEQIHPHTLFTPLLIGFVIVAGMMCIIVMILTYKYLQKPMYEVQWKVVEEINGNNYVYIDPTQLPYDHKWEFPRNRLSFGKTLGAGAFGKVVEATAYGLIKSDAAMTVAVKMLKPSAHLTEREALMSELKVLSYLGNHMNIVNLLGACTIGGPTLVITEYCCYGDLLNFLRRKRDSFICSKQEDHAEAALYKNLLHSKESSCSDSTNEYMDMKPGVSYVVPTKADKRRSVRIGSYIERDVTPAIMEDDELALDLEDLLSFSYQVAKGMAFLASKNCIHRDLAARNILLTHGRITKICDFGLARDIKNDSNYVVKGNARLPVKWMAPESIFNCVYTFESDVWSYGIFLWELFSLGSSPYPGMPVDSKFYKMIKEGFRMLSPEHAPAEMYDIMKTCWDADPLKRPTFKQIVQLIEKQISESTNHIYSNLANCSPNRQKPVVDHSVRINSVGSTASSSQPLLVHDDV
Chain of FLT3 (P36888 27-993): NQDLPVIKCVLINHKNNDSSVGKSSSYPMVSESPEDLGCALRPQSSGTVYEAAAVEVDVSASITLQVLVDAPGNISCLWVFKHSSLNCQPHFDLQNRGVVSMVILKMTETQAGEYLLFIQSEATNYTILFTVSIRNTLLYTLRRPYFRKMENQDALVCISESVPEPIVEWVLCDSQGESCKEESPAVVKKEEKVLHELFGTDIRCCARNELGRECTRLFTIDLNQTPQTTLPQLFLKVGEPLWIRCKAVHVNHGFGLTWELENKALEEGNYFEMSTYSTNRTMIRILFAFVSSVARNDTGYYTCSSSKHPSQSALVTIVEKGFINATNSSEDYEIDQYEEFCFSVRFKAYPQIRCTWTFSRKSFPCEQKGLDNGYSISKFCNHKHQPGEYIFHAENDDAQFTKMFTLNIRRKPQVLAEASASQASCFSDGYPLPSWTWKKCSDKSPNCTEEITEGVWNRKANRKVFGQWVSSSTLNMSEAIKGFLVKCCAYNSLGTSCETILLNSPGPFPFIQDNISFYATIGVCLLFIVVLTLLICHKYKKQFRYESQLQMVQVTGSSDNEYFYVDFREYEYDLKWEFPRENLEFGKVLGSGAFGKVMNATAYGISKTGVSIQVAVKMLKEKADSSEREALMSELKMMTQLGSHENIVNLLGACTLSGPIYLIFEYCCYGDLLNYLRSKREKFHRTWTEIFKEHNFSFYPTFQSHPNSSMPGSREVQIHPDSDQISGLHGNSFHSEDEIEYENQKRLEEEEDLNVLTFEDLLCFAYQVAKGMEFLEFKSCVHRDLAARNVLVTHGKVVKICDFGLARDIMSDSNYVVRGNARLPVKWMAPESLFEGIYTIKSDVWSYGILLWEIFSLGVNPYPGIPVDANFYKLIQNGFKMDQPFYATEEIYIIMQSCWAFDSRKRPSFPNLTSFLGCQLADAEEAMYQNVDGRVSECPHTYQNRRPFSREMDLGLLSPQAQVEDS
Chain of PDGFRα (P16234 24-1089): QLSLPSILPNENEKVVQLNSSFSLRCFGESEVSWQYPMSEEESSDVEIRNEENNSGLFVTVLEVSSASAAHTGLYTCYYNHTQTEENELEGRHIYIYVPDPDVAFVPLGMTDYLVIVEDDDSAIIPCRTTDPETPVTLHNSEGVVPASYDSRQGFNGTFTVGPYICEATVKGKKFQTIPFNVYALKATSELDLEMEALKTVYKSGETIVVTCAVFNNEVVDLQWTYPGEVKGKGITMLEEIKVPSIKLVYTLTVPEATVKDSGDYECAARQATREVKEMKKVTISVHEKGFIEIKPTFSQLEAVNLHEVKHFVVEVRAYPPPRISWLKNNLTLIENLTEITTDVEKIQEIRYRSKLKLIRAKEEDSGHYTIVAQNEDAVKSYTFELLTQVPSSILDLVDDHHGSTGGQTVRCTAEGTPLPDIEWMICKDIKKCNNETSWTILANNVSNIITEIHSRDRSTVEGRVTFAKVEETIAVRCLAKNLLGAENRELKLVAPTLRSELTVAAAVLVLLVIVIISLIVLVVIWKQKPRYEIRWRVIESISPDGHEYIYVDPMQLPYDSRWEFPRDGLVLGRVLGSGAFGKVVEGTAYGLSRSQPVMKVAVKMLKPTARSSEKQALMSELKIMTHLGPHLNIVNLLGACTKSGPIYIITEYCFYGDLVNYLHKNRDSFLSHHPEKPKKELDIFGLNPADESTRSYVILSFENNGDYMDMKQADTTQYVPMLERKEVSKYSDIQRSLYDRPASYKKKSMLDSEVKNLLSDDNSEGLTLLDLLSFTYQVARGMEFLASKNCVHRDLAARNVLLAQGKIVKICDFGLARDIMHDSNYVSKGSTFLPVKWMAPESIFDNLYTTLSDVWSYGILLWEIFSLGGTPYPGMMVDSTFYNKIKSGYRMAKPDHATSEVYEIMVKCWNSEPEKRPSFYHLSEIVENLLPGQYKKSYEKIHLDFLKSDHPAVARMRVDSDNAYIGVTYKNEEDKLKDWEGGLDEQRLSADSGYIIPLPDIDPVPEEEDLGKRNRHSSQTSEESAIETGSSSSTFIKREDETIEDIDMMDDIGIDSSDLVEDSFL
Chain of CSF1R (P07333 20-972): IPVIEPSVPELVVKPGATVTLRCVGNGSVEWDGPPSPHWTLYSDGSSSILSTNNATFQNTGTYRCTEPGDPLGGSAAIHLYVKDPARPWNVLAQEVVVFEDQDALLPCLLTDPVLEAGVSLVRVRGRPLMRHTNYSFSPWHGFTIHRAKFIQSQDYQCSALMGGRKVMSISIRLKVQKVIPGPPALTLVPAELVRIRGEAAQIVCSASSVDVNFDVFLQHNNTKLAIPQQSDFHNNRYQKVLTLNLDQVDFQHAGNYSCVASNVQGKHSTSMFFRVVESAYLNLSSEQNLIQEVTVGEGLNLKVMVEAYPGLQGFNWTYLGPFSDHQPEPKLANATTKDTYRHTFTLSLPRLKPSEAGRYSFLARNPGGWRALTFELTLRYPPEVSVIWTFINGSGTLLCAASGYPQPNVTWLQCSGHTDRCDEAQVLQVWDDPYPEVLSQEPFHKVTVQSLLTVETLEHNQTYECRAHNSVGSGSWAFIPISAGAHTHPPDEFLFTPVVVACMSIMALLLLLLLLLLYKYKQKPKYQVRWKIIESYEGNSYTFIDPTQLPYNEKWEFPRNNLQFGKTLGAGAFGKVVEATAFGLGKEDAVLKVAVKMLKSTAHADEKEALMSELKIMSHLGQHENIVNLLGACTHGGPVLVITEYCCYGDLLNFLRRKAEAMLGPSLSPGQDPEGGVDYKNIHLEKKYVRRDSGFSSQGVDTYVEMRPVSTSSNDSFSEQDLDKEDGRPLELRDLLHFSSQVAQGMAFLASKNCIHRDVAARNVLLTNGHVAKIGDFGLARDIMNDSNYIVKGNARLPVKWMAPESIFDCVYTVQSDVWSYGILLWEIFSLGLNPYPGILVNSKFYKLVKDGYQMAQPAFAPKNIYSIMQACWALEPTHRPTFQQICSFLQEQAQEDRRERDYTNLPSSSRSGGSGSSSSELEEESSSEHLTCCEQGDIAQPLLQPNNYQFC
Chain of PDGFRβ (P09619 33-1106): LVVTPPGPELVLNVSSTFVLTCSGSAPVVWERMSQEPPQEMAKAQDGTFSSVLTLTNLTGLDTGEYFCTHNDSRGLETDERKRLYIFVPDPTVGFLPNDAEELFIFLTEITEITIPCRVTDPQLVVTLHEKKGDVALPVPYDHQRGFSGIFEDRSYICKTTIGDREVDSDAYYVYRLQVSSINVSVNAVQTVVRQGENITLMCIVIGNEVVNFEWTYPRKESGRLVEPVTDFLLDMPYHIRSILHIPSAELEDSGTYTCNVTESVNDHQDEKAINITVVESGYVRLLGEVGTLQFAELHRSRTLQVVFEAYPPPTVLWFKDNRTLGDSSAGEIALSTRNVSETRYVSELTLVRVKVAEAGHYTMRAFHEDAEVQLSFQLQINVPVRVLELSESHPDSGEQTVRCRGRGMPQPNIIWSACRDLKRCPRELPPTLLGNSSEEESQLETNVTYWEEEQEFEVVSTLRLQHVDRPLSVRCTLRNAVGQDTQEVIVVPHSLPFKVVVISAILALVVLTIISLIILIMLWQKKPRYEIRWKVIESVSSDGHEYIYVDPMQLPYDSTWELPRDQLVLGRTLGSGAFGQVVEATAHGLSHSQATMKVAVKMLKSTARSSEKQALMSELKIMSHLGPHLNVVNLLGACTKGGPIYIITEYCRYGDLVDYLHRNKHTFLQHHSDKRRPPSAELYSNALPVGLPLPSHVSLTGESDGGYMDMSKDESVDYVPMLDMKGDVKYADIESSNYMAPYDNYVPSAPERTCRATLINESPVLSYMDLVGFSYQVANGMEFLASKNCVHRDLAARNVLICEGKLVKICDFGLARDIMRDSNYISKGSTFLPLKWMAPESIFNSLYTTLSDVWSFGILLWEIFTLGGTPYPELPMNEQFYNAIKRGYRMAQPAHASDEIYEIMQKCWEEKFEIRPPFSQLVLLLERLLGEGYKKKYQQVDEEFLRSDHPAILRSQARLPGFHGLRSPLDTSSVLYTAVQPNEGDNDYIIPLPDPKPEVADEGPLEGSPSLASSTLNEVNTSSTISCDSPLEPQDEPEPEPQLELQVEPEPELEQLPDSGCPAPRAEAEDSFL

| SMILES | IC50 ([1]; biochemical, HTRF KinEASE-TK) | IC50 [2, 7] | IC50 ([3]; HTRF KinEASE-TK) | IC50 ([4]; HTRF KinEASE-TK) | IC50 ([5]; biochemical, HTRF KinEASE-TK) | IC50 ([6]; HTRF KinEASE-TK) | IC50 ([2]; Phospho-KIT (Y703), M07e cells) | IC50 ([1]; biochemical) | IC50 ([2]; M-07e, phospho-KIT (Y703), SCF-stimulated M07e cells) | IC50 [3] | IC50 [4] | IC50 ([5]; biochemical) | IC50 [6] | IC50 [1] | IC50 ([2]; M-07e) | IC50 [5] |
| --- | --- | --- | --- | --- | --- | --- | --- | --- | --- | --- | --- | --- | --- | --- | --- | --- |
| Cc1cc(F)c(C(=O)NCC(F)(F)F)cc1NC(=O)c1cnc(N)s1 [Example 122, 2-Amino-N-[4-fluoro-2-methyl-5-(2,2,2-trifluoroethylcarbamoyl)phenyl]-1,3-thiazole-5-carboxamide] | < 100 nM | < 100 nM | > 1000 nM | > 1000 nM | > 1000 nM | > 1000 nM | – | – | – | – | – | – | – | – | – | – |
| Cc1ncc(C(=O)Nc2cc(C(=O)Nc3ccc(C(C)(F)F)cn3)c(F)cc2C)s1 [Example 20, N-[5-[[5-(1,1-Difluoroethyl)pyridin-2-yl]carbamoyl]-4-fluoro-2-methylphenyl]-2-methyl-1,3-thiazole-5-carboxamide] | < 100 nM | < 100 nM | > 1000 nM | > 1000 nM | > 1000 nM | > 1000 nM | – | – | – | – | – | – | – | – | – | – |
| Cc1ncc(C(=O)Nc2cc(C(=O)Nc3ccn(C(C)C)n3)c(F)cc2C)s1 [Example 63, N-[4-Fluoro-2-methyl-5-[(1-propan-2-ylpyrazol-3-yl)carbamoyl]phenyl]-2-methyl-1,3-thiazole-5-carboxamide] | < 100 nM | < 100 nM | > 1000 nM | > 1000 nM | > 1000 nM | > 1000 nM | – | – | – | – | – | – | – | – | – | – |
| CO[C@H]1C[C@H](n2ccc(NC(=O)c3cc(NC(=O)c4cnc(N)s4)c(C)cc3F)n2)C1 [Example 187, 2-Amino-N-[4-fluoro-5-[[1-(trans-3-methoxycyclobutyl)pyrazol-3-yl]carbamoyl]-2-methylphenyl]-1,3-thiazole-5-carboxamide] | < 100 nM | < 100 nM | > 1000 nM | > 1000 nM | > 1000 nM | > 1000 nM | – | – | – | – | – | – | – | – | – | – |
| Cc1cc(F)c(C(=O)Nc2ccc3c(n2)CCOC3)cc1NC(=O)c1cnc(N)s1 [Example 115, 2-Amino-N-[5-(7,8-dihydro-5H-pyrano[4,3-b]pyridin-2-ylcarbamoyl)-4-fluoro-2-methylphenyl]-1,3-thiazole-5-carboxamide] | < 100 nM | < 100 nM | > 1000 nM | > 1000 nM | > 1000 nM | 100 to 1000 nM | – | – | – | – | – | – | – | – | – | – |
| Cc1cc(F)c(C(=O)Nc2ccc(OC(C)C)cn2)cc1NC(=O)c1cnc(N)s1 [Example 140, 2-Amino-N-[4-fluoro-2-methyl-5-[(5-propan-2-yloxypyridin-2-yl)carbamoyl]phenyl]-1,3-thiazole-5-carboxamide] | – | – | 100 to 1000 nM | 100 to 1000 nM | – | 100 to 1000 nM | – | – | – | – | – | – | – | < 100 nM | < 100 nM | > 1000 nM |
| Cc1cc(F)c(C(=O)Nc2ccc(OC3CC3)c(C)n2)cc1NC(=O)c1cnc(N)s1 [Example 152, 2-Amino-N-[5-[(5-cyclopropyloxy-6-methylpyridin-2-yl)carbamoyl]-4-fluoro-2-methylphenyl]-1,3-thiazole-5-carboxamide] | < 100 nM | < 100 nM | 100 to 1000 nM | 100 to 1000 nM | > 1000 nM | > 1000 nM | – | – | – | – | – | – | – | – | – | – |
| COc1ccc(NC(=O)c2cc(NC(=O)c3cnc(N)s3)c(C)cc2F)nc1 [Example 131, 2-Amino-N-[4-fluoro-5-[(5-methoxypyridin-2-yl)carbamoyl]-2-methylphenyl]-1,3-thiazole-5-carboxamide] | < 100 nM | < 100 nM | > 1000 nM | > 1000 nM | > 1000 nM | > 1000 nM | – | – | – | – | – | – | – | – | – | – |
| Cc1cc(F)c(C(=O)Nc2ccn(C(C)C)n2)cc1NC(=O)c1cnc(N)s1 [Example 158, 2-Amino-N-[4-fluoro-2-methyl-5-[(1-propan-2-ylpyrazol-3-yl)carbamoyl]phenyl]-1,3-thiazole-5-carboxamide] | < 100 nM | < 100 nM | 100 to 1000 nM | 100 to 1000 nM | > 1000 nM | > 1000 nM | – | – | – | – | – | – | – | – | – | – |
| Cc1ncc(C(=O)Nc2cc(C(=O)Nc3ccc(C4(C(F)(F)F)CC4)cn3)c(F)cc2C)s1 [Example 67] | < 100 nM | < 100 nM | 100 to 1000 nM | > 1000 nM | > 1000 nM | > 1000 nM | – | – | – | – | – | – | – | – | – | – |
| CO[C@H]1C[C@@H](NC(=O)c2cc(NC(=O)c3cnc(N)s3)c(C)cc2F)C1 [Example 123, 2-Amino-N-[4-fluoro-5-[(3-methoxycyclobutyl)carbamoyl]-2-methylphenyl]-1,3-thiazole-5-carboxamide] | < 100 nM | < 100 nM | > 1000 nM | > 1000 nM | > 1000 nM | > 1000 nM | – | – | – | – | – | – | – | – | – | – |

Further lines, with some results ahead:

| IC50 ([1]; biochemical, HTRF KinEASE-TK) | IC50 [2, 7] | IC50 ([3]; HTRF KinEASE-TK) | IC50 ([4]; HTRF KinEASE-TK) | IC50 ([5]; biochemical, HTRF KinEASE-TK) | IC50 ([6]; HTRF KinEASE-TK) | IC50 ([2]; Phospho-KIT (Y703), M07e cells) | IC50 ([1]; biochemical) | IC50 ([2]; M-07e, phospho-KIT (Y703), SCF-stimulated M07e cells) | IC50 [3] | IC50 [4] | IC50 ([5]; biochemical) | IC50 [6] | SMILES | IC50 [1] | IC50 ([2]; M-07e) | IC50 [5] |
| --- | --- | --- | --- | --- | --- | --- | --- | --- | --- | --- | --- | --- | --- | --- | --- | --- |
| < 100 nM | < 100 nM | 100 to 1000 nM | 100 to 1000 nM | > 1000 nM | 100 to 1000 nM | – | – | – | – | – | – | – | CCc1ccc(NC(=O)c2cc(NC(=O)c3cnc(N)s3)c(C)cc2F)nc1 [Example 255, 2-Amino-N-[5-[(5-ethylpyridin-2-yl)carbamoyl]-4-fluoro-2-methylphenyl]-1,3-thiazole-5-carboxamide] | – | – | – |
| < 100 nM | < 100 nM | 100 to 1000 nM | > 1000 nM | > 1000 nM | 100 to 1000 nM | – | – | – | – | – | – | – | Cc1cc(F)c(C(=O)Nc2ccc(C(F)F)cn2)cc1NC(=O)c1cnc(N)s1 [Example 226, 2-Amino-N-[5-[[5-(difluoromethyl)pyridin-2-yl]carbamoyl]-4-fluoro-2-methylphenyl]-1,3-thiazole-5-carboxamide] | – | – | – |
| < 100 nM | – | < 100 nM | 100 to 1000 nM | > 1000 nM | 100 to 1000 nM | < 100 nM | – | – | – | – | – | – | Cc1cc(F)c(C(=O)Nc2ccc(OC3CC3)cn2)cc1NC(=O)c1cnc(NC(=O)C2CC2)s1 [Example 238, 2-(Cyclopropanecarbonylamino)-NV-[5-[(5-cyclopropyloxypyridin-2-yl)carbamoyl]-4-fluoro-2-methylphenyl]-1,3-thiazole-5-carboxamide] | – | – | – |
| – | – | – | – | – | – | – | < 100 nM | < 100 nM | 100 to 1000 nM | > 1000 nM | > 1000 nM | 100 to 1000 nM | Cc1cc(F)c(C(=O)Nc2ccc(OC(F)F)cn2)cc1NC(=O)c1cnc(N)s1 [Example 9, 2-Amino-N-[5-[[5-(difluoromethoxy)pyridin-2-yl]carbamoyl]-4-fluoro-2-methylphenyl]-1,3-thiazole-5-carboxamide] | – | – | – |
| < 100 nM | < 100 nM | 100 to 1000 nM | 100 to 1000 nM | > 1000 nM | > 1000 nM | – | – | – | – | – | – | – | Cc1cc(F)c(C(=O)NCC2(F)CC2)cc1NC(=O)c1cnc(NC(=O)N2CCC2)s1 [Example 103, 2-(Azetidine-1-carbonylamino)-N-[4-fluoro-5-[(1-fluorocyclopropyl)methylcarbamoyl]-2-methylphenyl]-1,3-thiazole-5-carboxamide] | – | – | – |

— patent publication US20250145606A1 (Arcus Biosciences, Inc., priority 2023, published 2025)
